Measured values as given in article PMC5218480 (PLoS ONE, 2017).

System: MV-4-11 cells
Test: Gene expression microarray analysis (Affymetrix PrimeView) and GSEA
Format: cell-based, human
Parameters: RFU PODN (11730768_x_at) / Fold change /veh PODN (11730768_x_at) / RFU LINC00158 (11744669_a_at) / Fold change /veh LINC00158 (11744669_a_at) / RFU DUSP10 (11751237_a_at) / Fold change /veh DUSP10 (11751237_a_at) / RFU ID3 (11757404_x_at) / Fold change /veh ID3 (11757404_x_at) / RFU PLEKHG5 (11737974_s_at) / Fold change /veh PLEKHG5 (11737974_s_at) / RFU LRRC4B (11730491_at) / Fold change /veh LRRC4B (11730491_at) / RFU GIMAP4 (11747438_a_at) / Fold change /veh GIMAP4 (11747438_a_at) / RFU KRT8 (11758183_x_at) / Fold change /veh KRT8 (11758183_x_at) / RFU CNN1 (11734310_a_at) / Fold change /veh CNN1 (11734310_a_at) / RFU VPS37D (11726825_at) / Fold change /veh VPS37D (11726825_at) / RFU C10orf10 (11716522_x_at) / Fold change /veh C10orf10 (11716522_x_at) / RFU KIR2DL2 /// KIR2DL4 /// KIR2DL5A /// KIR2DL5B /// KIR2DS1 /// KIR2DS2 /// KIR2DS3 /// KIR2DS4 /// KIR3DL3 /// KIR3DL3 /// KIR3DS1 (11738374_at) / Fold change /veh KIR2DL2 /// KIR2DL4 /// KIR2DL5A /// KIR2DL5B /// KIR2DS1 /// KIR2DS2 /// KIR2DS3 /// KIR2DS4 /// KIR3DL3 /// KIR3DL3 /// KIR3DS1 (11738374_at) / RFU C1QL1 (11718748_at) / Fold change /veh C1QL1 (11718748_at) / RFU TMPRSS4 (11747572_a_at) / Fold change /veh TMPRSS4 (11747572_a_at) / RFU HAMP (11756126_x_at) / Fold change /veh HAMP (11756126_x_at) / RFU RNFT2 (11725882_a_at) / Fold change /veh RNFT2 (11725882_a_at) / RFU NR4A2 (11747474_a_at) / Fold change /veh NR4A2 (11747474_a_at) / RFU ABCC12 (11746883_a_at) / Fold change /veh ABCC12 (11746883_a_at) / RFU TMEM136 (11760407_x_at) / Fold change /veh TMEM136 (11760407_x_at) / RFU CLDN22 /// WWC2 (11732394_at) / Fold change /veh CLDN22 /// WWC2 (11732394_at) / RFU HLA-DPB1 (11760878_x_at) / Fold change /veh HLA-DPB1 (11760878_x_at) / RFU SPINT1 (11716480_a_at) / Fold change /veh SPINT1 (11716480_a_at) / RFU GAP43 (11754022_s_at) / Fold change /veh GAP43 (11754022_s_at) / RFU A4GNT (11735810_at) / Fold change /veh A4GNT (11735810_at) / RFU PRB3 (11715151_x_at) / Fold change /veh PRB3 (11715151_x_at) / RFU TUBB4B (11761932_at) / Fold change /veh TUBB4B (11761932_at) / RFU CAPN14 (11732068_a_at) / Fold change /veh CAPN14 (11732068_a_at) / RFU TMCC2 (11721928_a_at) / Fold change /veh TMCC2 (11721928_a_at) / RFU IRGQ (11745062_a_at) / Fold change /veh IRGQ (11745062_a_at) / RFU FAM174B (11720279_a_at) / Fold change /veh FAM174B (11720279_a_at) / RFU TMPRSS4 (11748680_a_at) / Fold change /veh TMPRSS4 (11748680_a_at) / RFU FAM212B (11763350_a_at) / Fold change /veh FAM212B (11763350_a_at) / RFU PLEKHG5 (11743358_a_at) / Fold change /veh PLEKHG5 (11743358_a_at) / RFU ZSCAN30 (11745921_a_at) / Fold change /veh ZSCAN30 (11745921_a_at) / RFU CMKLR1 (11741424_a_at) / Fold change /veh CMKLR1 (11741424_a_at) / RFU LOC101060620 /// MAPK8IP1 (11723275_at) / Fold change /veh LOC101060620 /// MAPK8IP1 (11723275_at) / RFU SPTSSB (11747773_x_at) / Fold change /veh SPTSSB (11747773_x_at) / RFU PRSS12 (11739890_at) / Fold change /veh PRSS12 (11739890_at) / RFU BIN1 (11741810_x_at) / Fold change /veh BIN1 (11741810_x_at) / RFU WNT11 (11732464_a_at) / Fold change /veh WNT11 (11732464_a_at) / RFU C10orf10 (11716521_a_at) / Fold change /veh C10orf10 (11716521_a_at) / RFU C5orf56 (11738089_at) / Fold change /veh C5orf56 (11738089_at) / RFU CYB561 (11721691_x_at) / Fold change /veh CYB561 (11721691_x_at) / RFU ANKRD19P (11752326_a_at) / Fold change /veh ANKRD19P (11752326_a_at) / RFU OR2T12 /// OR2T33 /// OR2T8 (11738714_s_at) / Fold change /veh OR2T12 /// OR2T33 /// OR2T8 (11738714_s_at) / RFU VCAN (11748164_a_at) / Fold change /veh VCAN (11748164_a_at) / RFU JSRP1 (11732532_at) / Fold change /veh JSRP1 (11732532_at) / RFU KRTAP10-11 (11738290_x_at) / Fold change /veh KRTAP10-11 (11738290_x_at) / RFU MYO3A (11730013_a_at) / Fold change /veh MYO3A (11730013_a_at) / RFU EBF3 (11725865_a_at) / Fold change /veh EBF3 (11725865_a_at) / RFU CAMK2N1 (11719241_x_at) / Fold change /veh CAMK2N1 (11719241_x_at) / RFU C5orf56 (11738088_a_at) / Fold change /veh C5orf56 (11738088_a_at) / RFU OLFML3 (11715873_a_at) / Fold change /veh OLFML3 (11715873_a_at) / RFU LOC100653217 /// NTM (11731650_a_at) / Fold change /veh LOC100653217 /// NTM (11731650_a_at) / RFU MAPK11 (11762145_a_at) / Fold change /veh MAPK11 (11762145_a_at) / RFU FIZ1 (11724087_x_at) / Fold change /veh FIZ1 (11724087_x_at) / RFU OASL (11726364_x_at) / Fold change /veh OASL (11726364_x_at) / RFU SOX15 (11748057_x_at) / Fold change /veh SOX15 (11748057_x_at) / RFU CD79A (11719716_a_at) / Fold change /veh CD79A (11719716_a_at) / RFU HIST1H1D (11736915_at) / Fold change /veh HIST1H1D (11736915_at) / RFU CASKIN2 (11723855_a_at) / Fold change /veh CASKIN2 (11723855_a_at) / RFU LOC730098 (11760151_x_at) / Fold change /veh LOC730098 (11760151_x_at) / RFU OR4N2 (11742367_at) / Fold change /veh OR4N2 (11742367_at) / RFU PRRT2 (11749266_a_at) / Fold change /veh PRRT2 (11749266_a_at) / RFU SNX32 (11753110_a_at) / Fold change /veh SNX32 (11753110_a_at) / RFU CDHR5 (11726645_a_at) / Fold change /veh CDHR5 (11726645_a_at) / RFU RCAN1 (11760418_a_at) / Fold change /veh RCAN1 (11760418_a_at) / RFU FAM167A (11723789_a_at) / Fold change /veh FAM167A (11723789_a_at) / RFU FAM26E (11764081_at) / Fold change /veh FAM26E (11764081_at) / RFU ISYNA1 (11749810_s_at) / Fold change /veh ISYNA1 (11749810_s_at) / RFU ACY1 (11761880_at) / Fold change /veh ACY1 (11761880_at) / RFU 11764098_at / Fold change /veh 11764098_at / RFU SAMD14 (11745864_x_at) / Fold change /veh SAMD14 (11745864_x_at) / RFU NPB (11741838_a_at) / Fold change /veh NPB (11741838_a_at) / RFU TMPRSS6 (11731388_a_at) / Fold change /veh TMPRSS6 (11731388_a_at) / RFU KRTAP10-2 (11738614_at) / Fold change /veh KRTAP10-2 (11738614_at) / RFU ARHGAP8 /// PRR5-ARHGAP8 (11727945_x_at) / Fold change /veh ARHGAP8 /// PRR5-ARHGAP8 (11727945_x_at) / RFU KRTAP5-7 /// NADSYN1 (11734609_at) / Fold change /veh KRTAP5-7 /// NADSYN1 (11734609_at) / RFU RASL12 (11751679_a_at) / Fold change /veh RASL12 (11751679_a_at) / RFU CDKN2B (11736163_a_at) / Fold change /veh CDKN2B (11736163_a_at) / RFU PRF1 (11729649_at) / Fold change /veh PRF1 (11729649_at) / RFU, ZNF638 /// ZNF638-IT1 / Fold change vs veh, ZNF638 /// ZNF638-IT1 / RFU, PANK3 / Fold change vs veh, PANK3 / RFU, SH3YL1 / Fold change vs veh, SH3YL1 / RFU, ZEB2 / Fold change vs veh, ZEB2 / RFU, NRIP1 / Fold change vs veh, NRIP1 / RFU, PTTG1IP / Fold change vs veh, PTTG1IP / RFU, CAPN2 / Fold change vs veh, CAPN2 / RFU, MED14 / Fold change vs veh, MED14 / RFU, SNORA58 / Fold change vs veh, SNORA58 / RFU, C1orf63 / Fold change vs veh, C1orf63 / RFU, LRRFIP1 / Fold change vs veh, LRRFIP1 / RFU, NDUFAF7 / Fold change vs veh, NDUFAF7 / RFU, SLC12A2 / Fold change vs veh, SLC12A2 / RFU, IBTK / Fold change vs veh, IBTK / RFU, ESF1 / Fold change vs veh, ESF1 / Fold change vs veh, TMEM50B / RFU, TAOK1 / Fold change vs veh, TAOK1 / RFU, ACBD3 / Fold change vs veh, ACBD3 / RFU, TMA16 / Fold change vs veh, TMA16 / RFU, RWDD3 / Fold change vs veh, RWDD3 / RFU, BCAT1 / Fold change vs veh, BCAT1 / RFU, EDEM3 / Fold change vs veh, EDEM3 / RFU, TMEM33 / Fold change vs veh, TMEM33 / RFU, WDR75 / Fold change vs veh, WDR75 / RFU, AHCTF1 / Fold change vs veh, AHCTF1 / RFU, TFRC / Fold change vs veh, TFRC / RFU, ZDHHC17 / Fold change vs veh, ZDHHC17 / RFU, NOM1 / Fold change vs veh, NOM1 / RFU, ARL8B / Fold change vs veh, ARL8B / RFU, ZBTB11 / Fold change vs veh, ZBTB11 / RFU, TAMM41 / Fold change vs veh, TAMM41 / RFU, KIAA1704 /// LOC100996395 / Fold change vs veh, KIAA1704 /// LOC100996395 / RFU, ING1 / Fold change vs veh, ING1 / RFU, TRMT61B / Fold change vs veh, TRMT61B / RFU, FUBP3 / Fold change vs veh, FUBP3 / RFU, TP53 / Fold change vs veh, TP53 / RFU, TNKS2 / Fold change vs veh, TNKS2 / RFU, ZFP14 / Fold change vs veh, ZFP14 / RFU, ACTR2 / Fold change vs veh, ACTR2 / RFU, PPP3R1 / Fold change vs veh, PPP3R1 / RFU, PIK3R1 / Fold change vs veh, PIK3R1 / RFU, HNRNPA1 / Fold change vs veh, HNRNPA1 / RFU, RNF170 / Fold change vs veh, RNF170 / RFU, ZNF28 / Fold change vs veh, ZNF28 / RFU, RNGTT / Fold change vs veh, RNGTT / RFU, OGT / Fold change vs veh, OGT / RFU, BRD1 / Fold change vs veh, BRD1 / RFU, MARS / Fold change vs veh, MARS / RFU, ZNF655 / Fold change vs veh, ZNF655 / RFU, FAHD1 / Fold change vs veh, FAHD1 / RFU, BDP1 / Fold change vs veh, BDP1 / RFU, LRRCC1 / Fold change vs veh, LRRCC1 / RFU, ARID1A / Fold change vs veh, ARID1A / RFU, ZNF146 / Fold change vs veh, ZNF146 / RFU, ZNF330 / Fold change vs veh, ZNF330 / RFU, GPN3 / Fold change vs veh, GPN3 / RFU, C9orf123 / Fold change vs veh, C9orf123 / RFU, N4BP2L2 / Fold change vs veh, N4BP2L2 / RFU, ARFIP1 / Fold change vs veh, ARFIP1 / RFU, FAM179B / Fold change vs veh, FAM179B / RFU, BCL10 / Fold change vs veh, BCL10 / RFU, UHRF1BP1L / Fold change vs veh, UHRF1BP1L / RFU, BET1 / Fold change vs veh, BET1 / RFU, CNOT2 / Fold change vs veh, CNOT2 / RFU, ZNF268 / Fold change vs veh, ZNF268 / Fold change vs veh, ZNF507 / RFU, DGCR2 / Fold change vs veh, DGCR2 / RFU, WDSUB1 / Fold change vs veh, WDSUB1 / Fold change vs veh, HSP90B1 /// MIR3652 / RFU, ADSS / Fold change vs veh, ADSS / RFU, GK / Fold change vs veh, GK / RFU, ZNF148 / Fold change vs veh, ZNF148 / RFU, TAF9 / Fold change vs veh, TAF9 / RFU, SLC1A5 / Fold change vs veh, SLC1A5 / RFU, SLMO2 / Fold change vs veh, SLMO2 / RFU, ABCC4 / Fold change vs veh, ABCC4 / RFU, LOC101060439 /// RAP1B / Fold change vs veh, LOC101060439 /// RAP1B / RFU, RFX7 / Fold change vs veh, RFX7 / RFU, GTPBP10 / Fold change vs veh, GTPBP10 / RFU, CNEP1R1 / Fold change vs veh, CNEP1R1 / RFU, BIVM-ERCC5 /// ERCC5 / Fold change vs veh, BIVM-ERCC5 /// ERCC5 / RFU, ILF3 / Fold change vs veh, ILF3 / RFU 11762660_at / Fold change /veh 11762660_at / RFU VCAN (11757783_s_at) / Fold change /veh VCAN (11757783_s_at) / RFU DDX43 (11728927_at) / Fold change /veh DDX43 (11728927_at) / RFU KRT8 (11758188_x_at) / Fold change /veh KRT8 (11758188_x_at) / RFU NKD1 (11759106_at) / Fold change /veh NKD1 (11759106_at) / RFU SRD5A1 (11742802_a_at) / Fold change /veh SRD5A1 (11742802_a_at) / RFU TPSAB1 /// TPSB2 (11721975_s_at) / Fold change /veh TPSAB1 /// TPSB2 (11721975_s_at) / RFU GSTM3 (11746129_a_at) / Fold change /veh GSTM3 (11746129_a_at) / RFU IL23R (11737362_x_at) / Fold change /veh IL23R (11737362_x_at) / RFU TMEM51 (11727254_a_at) / Fold change /veh TMEM51 (11727254_a_at) / RFU PIWIL2 (11732686_x_at) / Fold change /veh PIWIL2 (11732686_x_at) / RFU ORM1 (11744905_x_at) / Fold change /veh ORM1 (11744905_x_at) / RFU CCDC152 (11743942_at) / Fold change /veh CCDC152 (11743942_at) / RFU ECM1 (11717891_a_at) / Fold change /veh ECM1 (11717891_a_at) / RFU IL23R (11748794_a_at) / Fold change /veh IL23R (11748794_a_at) / RFU TNFAIP8L3 (11732012_x_at) / Fold change /veh TNFAIP8L3 (11732012_x_at) / RFU MBOAT4 (11741988_at) / Fold change /veh MBOAT4 (11741988_at) / RFU 11764193_at / Fold change /veh 11764193_at / RFU TMEM53 (11763286_at) / Fold change /veh TMEM53 (11763286_at) / RFU MAGEB2 (11727129_at) / Fold change /veh MAGEB2 (11727129_at) / RFU TMEM200A (11744735_a_at) / Fold change /veh TMEM200A (11744735_a_at) / RFU CCDC152 (11751479_a_at) / Fold change /veh CCDC152 (11751479_a_at) / RFU FAM211A (11726209_a_at) / Fold change /veh FAM211A (11726209_a_at) / RFU RGS16 (11746705_a_at) / Fold change /veh RGS16 (11746705_a_at) / RFU VCAN (11755009_s_at) / Fold change /veh VCAN (11755009_s_at) / RFU RHOB (11743442_s_at) / Fold change /veh RHOB (11743442_s_at) / RFU RGS16 (11720943_a_at) / Fold change /veh RGS16 (11720943_a_at) / RFU RGS16 (11720944_at) / Fold change /veh RGS16 (11720944_at) / RFU, VPS4B / Fold change vs veh, VPS4B / RFU, CREB1 / Fold change vs veh, CREB1 / RFU, DNAJC13 / Fold change vs veh, DNAJC13 / RFU, GNAQ / Fold change vs veh, GNAQ / RFU, CDK5R1 / Fold change vs veh, CDK5R1 / RFU, ZRANB3 / Fold change vs veh, ZRANB3 / RFU, CUL4A / Fold change vs veh, CUL4A / RFU, CCNY / Fold change vs veh, CCNY / RFU, UFL1 / Fold change vs veh, UFL1 / RFU, COG3 / Fold change vs veh, COG3 / RFU, DIAPH2 / Fold change vs veh, DIAPH2 / RFU, SKA2 / Fold change vs veh, SKA2 / RFU, AFF3 / Fold change vs veh, AFF3 / RFU, LMF1 / Fold change vs veh, LMF1 / RFU, IPO11 / Fold change vs veh, IPO11 / RFU, DFFB / Fold change vs veh, DFFB / RFU, FOXP1 / Fold change vs veh, FOXP1 / RFU, CARD8 / Fold change vs veh, CARD8 / RFU, STRN3 / Fold change vs veh, STRN3 / RFU, ADK / Fold change vs veh, ADK / RFU, RASSF2 / Fold change vs veh, RASSF2 / RFU, WIPF1 / Fold change vs veh, WIPF1 / RFU, LARP1B / Fold change vs veh, LARP1B / RFU, RASA1 / Fold change vs veh, RASA1 / RFU, RB1 / Fold change vs veh, RB1 / RFU, PPFIA1 / Fold change vs veh, PPFIA1 / RFU, MAT2A / Fold change vs veh, MAT2A / RFU, CCT5 / Fold change vs veh, CCT5 / RFU, WDR92 / Fold change vs veh, WDR92 / RFU, CUX1 / Fold change vs veh, CUX1 / RFU, TTC7A / Fold change vs veh, TTC7A / RFU, TMEM135 / Fold change vs veh, TMEM135 / RFU, DEPTOR / Fold change vs veh, DEPTOR / RFU, CPM / Fold change vs veh, CPM / RFU, DNAJB6 / Fold change vs veh, DNAJB6 / RFU, CACNA2D3 / Fold change vs veh, CACNA2D3 / RFU, DTX4 / Fold change vs veh, DTX4 / RFU, TFCP2 / Fold change vs veh, TFCP2 / RFU, GMCL1 /// GMCL1P1 / Fold change vs veh, GMCL1 /// GMCL1P1 / RFU, AEBP2 / Fold change vs veh, AEBP2 / RFU, SNHG1 /// SNORD22 /// SNORD25 /// SNORD26 /// SNORD27 /// SNORD28 /// SNORD29 /// SNORD31 / Fold change vs veh, SNHG1 /// SNORD22 /// SNORD25 /// SNORD26 /// SNORD27 /// SNORD28 /// SNORD29 /// SNORD31 / Fold change (Aza/veh), C12orf56 (ProbeSet 11735607_a_at) / Fold change (ACY-1035/veh), C12orf56 (ProbeSet 11735607_a_at) / Fold change (Aza/veh), FGFR1OP (ProbeSet 11751329_s_at) / Fold change (ACY-1035/veh), FGFR1OP (ProbeSet 11751329_s_at) / Fold change (Aza/veh), VPS36 (ProbeSet 11739960_a_at) / Fold change (ACY-1035/veh), VPS36 (ProbeSet 11739960_a_at) / RFU SYPL1 (11715823_x_at) / Fold change /veh SYPL1 (11715823_x_at) / RFU IGFBP7 (11715501_s_at) / Fold change /veh IGFBP7 (11715501_s_at) / RFU REEP3 (11722064_at) / Fold change /veh REEP3 (11722064_at) / RFU IGLL1 (11728026_x_at) / Fold change /veh IGLL1 (11728026_x_at): dose or concentration left out as unconfirmed
Details: ProbeSet 11716865_a_at; LIST B

SMILES: Nc1ncn([C@@H]2O[C@H](CO)[C@@H](O)[C@H]2O)c(=O)n1 [azacitidine]
- RFU, SLC1A5: 258.33 RFU
